This note sets out measurements from patent US20090215783A1, “COMPOSITION FOR INDUCTION OR INHIBITION OF STEM CELL DIFFERENTIATION” (CHOONGWAE PHARMA CORPORATION, priority 2006, published 2009).

SMILES strings stand for the structures.

Test [1] concerns Mouse embryonic stem (ES) cells, TC1. Briefly: Cardiomyogenesis modulating activity assay (alpha-MHC promoter EGFP, embryoid bodies, FACS/fluorescence microscopy). The format is cell-based. As to conditions: embryoid bodies treated for 5 days, FACS. As to the method:
a. Cell culture: Mouse embryonic stem (ES) cells, TC1 derived from 129/S6 strain were cultured on irradiated feeder layer in the culture medium which is high-glucose DMEM (Gibco) BRL, Germany) supplemented with 15% FBS (Hyclone), 0.1 mM beta-mercaptoethanol, […] sodium pyruvate, 1 mM L-glutamine and 1× non-essential amino acids.
b. Establishment of alpha-MHC stably transformed ES cell line: A construct (FIG. 8) containing 1.8 kb promoter sequence of the mouse alpha-MHC gene between EcoRI and SalI sites of pEGFP-1 (Clontech Laboratories, Inc, CA, USA) was linearized at XhoI site, and was introduced into mouse ES cells, TC1, using the Gene Pulser II (BioRad, MA). A selection medium containing G418 was applied for two weeks from 24 hours after electroporation. The selected ES cell clones were harvested and expanded on the feeder cell layer. The green fluorescence-expressing clones when differentiated into cardiomyocytes were used in this experiment.
c. Cardiomyogenesis modulating activity assay: Embryoid body (EB) was formed by hanging drop culture using about a number of 600 (six hundred) ES cells for two days and it was further expanded by culturing in suspension condition on a Petri-dish for another two days. Then each EB was plated on a well of 96 well culture plates. Test compounds were dissolved in DMSO and diluted with culture media (final 0.05% DMSO) and EB was treated with test compound for 5 days. Culture medium was changed every three days after plating. Expression level of EGFP was measured with FACS (Beckman). For FACS analysis, differentiating cells were dissociated with trypsin. For the determination of the extent of differentiation, EB was observed and photographed with an inverted fluorescence microscope (Zeiss, Germany). Number of beating EBs was counted under the microscope and recorded once daily.

For test [2], the system named is human bone marrow derived-mesenchymal stem cells (hBMMSC). Briefly: Osteogenesis modulating activity assay by test compound alone (ALP activity). As to conditions: Homo sapiens, 168 h; hBMMSC, 20 μM test compound alone, six to seven days; read-out: Osteogenesis: fold change of ALP activity compared with DMSO control. The test is classed as cell-based. As to the method:
Cell culture: Human bone marrow derived-mesenchymal stem cells (hBMMSC) were isolated from normal subjects.
Osteogenesis modulating activity assay by test compound alone: hBMMSC were cultivated in the culture medium and cells were seeded into 96-well culture plates and test compounds were dissolved in DMSO and diluted with culture media (final 0.01% DMSO) and added into the media (final concentration of test compound was 20 μM) and cultured in the CO2 incubator (37° C., 5% CO2). Culture medium was changed every two days with fresh one and compound was treated again whenever medium was changed. Six to seven days after incubation, Alkaline phosphatase activity of cell lysates was measured by colorimetry. For the determination of mineralization within the cells, Von Kossa staining or Alizarin Red S assay was performed 10-14 days after incubation.

Take `O=C1[C@H](Cc2ccc(F)cc2)N2C(=O)CN(Cc3ccc(F)cc3)N(C(=O)NCc3ccccc3)[C@H]2CN1Cc1cccc(C(F)(F)F)c1` [#70]: the “Cardiomyogenesis: fold change of EGFP expression level compared with DMSO control” value (from here on “Cardiomyogenesis: fold change”) in test [1] turned out to be 0.92 fold. The fold induction at 20 µM in test [2] was found to be 1.03.
Taken in the same sequence, the figures for `COc1ccc(C[C@H]2C(=O)N(Cc3cccc(C(F)(F)F)c3)C[C@H]3N2C(=O)CN(Cc2ccc(F)cc2)N3C(=O)NCc2ccccc2)cc1` [#65] were 2.54 fold and 1.34.
Taken in the same sequence, the figures for `CC(C)CN1C[C@H]2N(C(=O)CN(C)N2C(=O)NCc2ccccc2)[C@@H](CCC(=O)O)C1=O` [#17] were 2.52 fold and 1.29.
With `CC(C)[C@H]1C(=O)N(Cc2cccc(Br)c2)C[C@H]2N1C(=O)N(C)N2C(=O)NCc1ccccc1` [#106], the “Cardiomyogenesis: fold change” value in test [1] was 1.25 fold. Moreover, the fold induction at 20 µM in test [2] was found to be 0.37.
Taken in the same sequence, the figures for `C=CCN1CC(=O)N2C(CC(=O)O)C(=O)N(CCc3ccccc3)C[C@@H]2N1C(=O)NCc1ccccc1` (some centres unmarked) [#88] were 1.34 fold and 0.64.
For `CCCN1CC(=O)N2C(CN(CCC(C)C)C(=O)[C@@H]2CCC(=O)O)N1C(=O)NCc1ccccc1` (some centres unmarked) [#95], the “Cardiomyogenesis: fold change” value in test [1] is listed as 2.22 fold. Also, in test [2], the fold induction at 20 µM was determined as 1.19.
Take `CN1CC(=O)N2C(CN(Cc3ccc(F)cc3)C(=O)[C@@H]2Cc2ccc(O)cc2)N1C(=O)NCc1ccccc1` (some centres unmarked) [#9]: the “Cardiomyogenesis: fold change” value in test [1] turned out to be 1.59 fold. Besides, the fold induction at 20 µM in test [2] turned out to be 0.24.
On to `CCCCNC(=O)N1[C@H]2CN(CCc3ccc(OC)cc3)C(=O)[C@H](CC(C)C)N2C(=O)CN1Cc1ccc(C)cc1` [#97], for which, in test [1], the “Cardiomyogenesis: fold change” value was 0.71 fold. Moreover, in test [2], the fold induction at 20 µM is 0.54.
`C=CCN1CC(=O)N2[C@@H](CC(C)C)C(=O)N(CCc3ccccc3)C[C@@H]2N1C(=O)NCc1ccccc1` [#86]: the “Cardiomyogenesis: fold change” value in test [1] came out at 1.34 fold. The fold induction at 20 µM in test [2] is 0.54.
Regarding `CC(C)C[C@@H]1C(=O)N(CCc2ccc(Cl)cc2)CC2N1C(=O)CN(Cc1ccccc1)N2C(=O)NCc1ccccc1` (some centres unmarked) [#74], in test [1], the “Cardiomyogenesis: fold change” value is reported as 1.59 fold. Further, the fold induction at 20 µM in test [2] came to 0.54.
For the compound `CCC(C)[C@H]1C(=O)N(CCC(c2ccccc2)c2ccccc2)C[C@H]2N1C(=O)N(C)N2C(=O)NCc1ccccc1` (some centres unmarked) [#103], the “Cardiomyogenesis: fold change” value in test [1] was 1.98 fold. Moreover, the fold induction at 20 µM in test [2] is 0.98.
In the same order, the values of `CN1C(=O)N2[C@@H](Cc3ccc(O)cc3)C(=O)N(CCc3ccc(F)cc3)C[C@@H]2N1C(=O)NCc1ccccc1` [#99] are 1.74 fold and 0.46.
For `CC(C)C[C@H]1C(=O)N(CCOc2ccccc2N)CC2N1C(=O)CN(C)N2C(=O)NCc1ccccc1` (some centres unmarked) [#3], in test [1], the “Cardiomyogenesis: fold change” value was 1.25 fold. Besides, the fold induction at 20 µM in test [2] amounted to 1.29.
Taken in the same sequence, the figures for `CN1CC(=O)N2[C@@H](Cc3ccc(Cl)cc3)C(=O)N(CCc3ccccc3)C[C@@H]2N1C(=O)NCc1ccccc1` [#39] were 0.29 fold and 0.79.
For `C=CCN1CC(=O)N2[C@@H](Cc3ccccc3)C(=O)N(CCc3ccccc3)C[C@@H]2N1C(=O)NCc1ccccc1` [#87], the “Cardiomyogenesis: fold change” value in test [1] is 0.89 fold. In addition, the fold induction at 20 µM in test [2] was found to be 0.59.
With `CN1CC(=O)N2[C@@H](COCc3ccccc3)C(=O)N(CCc3ccccc3)C[C@@H]2N1C(=O)NCc1ccccc1` [#32], the “Cardiomyogenesis: fold change” value in test [1] is recorded as 0.95 fold. Further, in test [2], the fold induction at 20 µM is 0.94.
Consider `CCC(C)[C@H]1C(=O)N(CC2CCCCC2)C[C@H]2N1C(=O)N(C)N2C(=O)NCc1ccccc1` (some centres unmarked) [#101], for which, in test [1], the “Cardiomyogenesis: fold change” value amounted to 2.32 fold. Further, the fold induction at 20 µM in test [2] came to 1.28.
Taken in the same sequence, the figures for `C=CCN1CC(=O)N2C(CN(CCc3ccccc3)C(=O)[C@@H]2CCC(=O)O)N1C(=O)NCc1ccccc1` (some centres unmarked) [#89] were 1.26 fold and 1.16.
In the same order, the values of `CN1C(=O)N2[C@@H](Cc3ccc(O)cc3)C(=O)N(Cc3cccc4ccccc34)C[C@@H]2N1C(=O)NCc1ccccc1` [#100] are 1.35 fold and 1.11.
`CN1CC(=O)N2[C@@H](CC3CCCCC3)C(=O)N(CCCc3ccccc3)C[C@@H]2N1C(=O)NCc1ccccc1` [#28]: in test [1], the “Cardiomyogenesis: fold change” value is 1.23 fold. Besides, in test [2], the fold induction at 20 µM came to 0.26.
Taken in the same sequence, the figures for `CCCCN1C[C@H]2N(C(=O)CN(C)N2C(=O)NCc2ccccc2)[C@@H](Cc2ccc(Cl)cc2)C1=O` [#30] were 1.75 fold and 1.12.
As to `CCCCNC(=O)N1[C@H]2CN(CCCCc3ccccc3)C(=O)[C@H](Cc3ccc(O)cc3)N2C(=O)CN1Cc1cccc(F)c1` [#40], the “Cardiomyogenesis: fold change” value in test [1] turned out to be 1.11 fold. Besides, in test [2], the fold induction at 20 µM was determined as 0.69.
For `COc1ccc(CN2C[C@H]3N(C(=O)CN(C)N3C(=O)NCc3ccccc3)[C@@H](CC(C)C)C2=O)cc1` [#20], the “Cardiomyogenesis: fold change” value in test [1] was 2.17 fold. Besides, the fold induction at 20 µM in test [2] was 1.06.
Taken in the same sequence, the figures for `CN1CC(=O)N2C(Cc3ccc(Oc4ccccc4)cc3)C(=O)N(Cc3cccc4ccccc34)CC2N1C(=O)NCc1ccccc1` (centres unmarked) [#1] were 1.21 fold and 0.36.
Taken in the same sequence, the figures for `CC(C)[C@H]1C(=O)N(Cc2cccc(F)c2)C[C@H]2N1C(=O)CN(Cc1ccccc1)N2C(=O)NCc1ccccc1` [#55] were 1.26 fold and 0.98.
Taken in the same sequence, the figures for `Cc1ccc(C[C@H]2C(=O)N(CCc3ccc(Cl)cc3)C[C@H]3N2C(=O)CN(Cc2ccccc2)N3C(=O)NCc2ccccc2)cc1` [#78] were 1.70 fold and 0.75.
As to `CCCCNC(=O)N1[C@H]2CN([C@@H](C)c3ccccc3)C(=O)[C@H](CC(C)C)N2C(=O)CN1Cc1ccc(C)cc1` [#46], the “Cardiomyogenesis: fold change” value in test [1] is 1.90 fold. Moreover, the fold induction at 20 µM in test [2] was found to be 1.02.
In the same order, the values of `O=C1[C@H](Cc2ccc(F)cc2)N2C(=O)CN(Cc3ccccc3)N(C(=O)NCc3ccccc3)[C@H]2CN1CCc1ccc(Cl)cc1` [#80] are 1.49 fold and 0.19.
For `Cc1ccc(C[C@H]2C(=O)N(Cc3cccc(C(F)(F)F)c3)C[C@H]3N2C(=O)CN(Cc2ccc(F)cc2)N3C(=O)NCc2ccccc2)cc1` [#67], the “Cardiomyogenesis: fold change” value in test [1] is reported as 1.50 fold. Moreover, the fold induction at 20 µM in test [2] was determined as 0.8.
Taken in the same sequence, the figures for `CCCN1CC(=O)N2C(CC(=O)O)C(=O)N(CCC(C)C)C[C@H]2N1C(=O)NCc1ccccc1` (some centres unmarked) [#94] were 3.02 fold and 0.69.
As to `CC(C)C[C@H]1C(=O)N(C2CCCCC2)C[C@H]2N1C(=O)N(C)N2C(=O)NCc1ccccc1` [#105], the “Cardiomyogenesis: fold change” value in test [1] was determined as 1.12 fold. Also, the fold induction at 20 µM in test [2] worked out at 0.8.
Taken in the same sequence, the figures for `C#CCN1CC(=O)N2C(Cc3ccc(C)cc3)C(=O)N(CCCCCCC)C[C@@H]2N1C(=O)NCc1ccccc1` (some centres unmarked) [#51] were 0.49 fold and 0.31.
In the case of `CCC(C)[C@H]1C(=O)N(Cc2cccc(Cl)c2)C[C@H]2N1C(=O)N(C)N2C(=O)NCc1ccccc1` (some centres unmarked) [#109], the “Cardiomyogenesis: fold change” value in test [1] came to 0.97 fold. In test [2], the fold induction at 20 µM came out at 1.
Taken in the same sequence, the figures for `CCC(C)[C@H]1C(=O)N(Cc2ccc(OC)cc2)C[C@H]2N1C(=O)CN(C)N2C(=O)NCc1ccccc1` (some centres unmarked) [#23] were 1.69 fold and 0.86.
